From US12649748B2, “Wee1 inhibitor and use thereof” (JIANGSU TASLY DIYI PHARMACEUTICAL CO., LTD., priority 2021, dated 2026)

Assays:
[1] = Plasma protein binding (PPB), human; format: in vitro ADME; settings: 5 h dialysis, read-out: Plasma protein binding rate (%) Human (converted)
Method: Sample preparation: The compound was dissolved in DMSO to a stock solution of 10 mM, then the compound was diluted with PBS to a secondary stock solution of 0.02 mM, and then the above 0.02 mM was diluted to 1 μM using blank plasma, which was the sample to be incubated.
Dialysis set-up preparation: 400 μL of blank PBS was first added to the white wells of the equilibrated dialysis plate and 200 μL of the configured plasma sample was added to the red wells, and the dialysis plate was sealed with a sealing film.
Recovery plate preparation: Two 96-well deep-well plates, labelled T0 and T5, were prepared and all plasma samples were added at n=2. 300 μL of acetonitrile (Verapamil-HCl, 4 ng/mL) was added directly to the TO plate, followed by 50 μL of blank PBS mix well for 5 min and left to stand in a 4° C. refrigerator until the end of the incubation.
Experimental Operation: The dialysis device and the T5 plate were incubated together for 5 h in a microplate thermostatic shaker (37° C., using 300 rpm or minimum speed). At the end of the incubation, 300 μL of acetonitrile (Verapamil-HCl, 4 ng/mL) was added and 50 μL of PBS solution was added. At the end of the dialysis incubation, a new 96-well deep well plate was taken. […]

[2] = target: T1, hERG potassium channel (Homo sapiens, UniProt Q12809); experiment: hERG potassium channel inhibition assay (patch clamp, CHO hERG cells); format: cell-based; settings: CHO cells overexpressing hERG potassium channel, whole cell patch clamp
T1 construct: expressed in transfected cells; host or cells: CHO (Chinese hamster ovary) stably transfected cell line
T1 sequence (Q12809 whole entry): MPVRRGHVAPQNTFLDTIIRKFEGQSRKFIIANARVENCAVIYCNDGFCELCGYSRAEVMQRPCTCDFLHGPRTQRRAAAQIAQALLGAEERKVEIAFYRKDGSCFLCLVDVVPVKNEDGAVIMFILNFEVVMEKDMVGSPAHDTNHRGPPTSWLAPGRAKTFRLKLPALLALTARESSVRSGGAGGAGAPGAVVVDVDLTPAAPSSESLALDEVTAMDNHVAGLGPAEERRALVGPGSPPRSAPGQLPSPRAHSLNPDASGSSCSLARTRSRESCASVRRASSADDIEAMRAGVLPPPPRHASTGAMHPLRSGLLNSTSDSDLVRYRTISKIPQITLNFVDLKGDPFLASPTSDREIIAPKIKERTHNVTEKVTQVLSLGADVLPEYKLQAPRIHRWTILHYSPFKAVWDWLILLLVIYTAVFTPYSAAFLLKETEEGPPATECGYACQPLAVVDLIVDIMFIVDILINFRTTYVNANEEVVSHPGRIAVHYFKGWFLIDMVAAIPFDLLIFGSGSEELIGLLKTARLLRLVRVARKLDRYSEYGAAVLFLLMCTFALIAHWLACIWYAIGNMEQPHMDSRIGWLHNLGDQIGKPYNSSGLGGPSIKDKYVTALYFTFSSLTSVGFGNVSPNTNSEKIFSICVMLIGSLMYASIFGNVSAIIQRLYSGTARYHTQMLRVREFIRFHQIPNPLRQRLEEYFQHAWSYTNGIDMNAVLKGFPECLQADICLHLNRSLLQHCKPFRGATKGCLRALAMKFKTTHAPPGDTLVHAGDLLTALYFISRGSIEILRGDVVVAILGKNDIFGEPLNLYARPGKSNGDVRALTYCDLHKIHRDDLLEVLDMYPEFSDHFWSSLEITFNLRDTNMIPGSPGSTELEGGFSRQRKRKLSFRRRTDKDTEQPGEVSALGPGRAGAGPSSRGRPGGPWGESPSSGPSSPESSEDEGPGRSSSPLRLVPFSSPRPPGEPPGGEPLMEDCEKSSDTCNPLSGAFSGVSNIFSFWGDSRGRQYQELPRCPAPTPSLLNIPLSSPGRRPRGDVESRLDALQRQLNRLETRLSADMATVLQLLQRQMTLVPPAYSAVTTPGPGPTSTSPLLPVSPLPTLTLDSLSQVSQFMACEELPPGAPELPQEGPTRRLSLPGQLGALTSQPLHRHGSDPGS
Method: The cell line used for the patch clamp assay was a 10th generation CHO cell overexpressing hERG potassium channel cDNA.
CHO hERG cells were cultured in Petri dishes or flasks at 37° C. in a 5% CO2 incubator. Cells were dropped onto circular slides 24-48 hours prior to electrophysiological experiments and cultured in cell culture medium and used for experiments after the cells had been adhered.
Compound powders are dissolved in the extracellular solution and are subjected to a routine 5 to 10 minute sonication and shaking to ensure complete dissolution of the compound.
The final concentrations of compounds used for electrophysiological assays were 5, 20 μM and the final concentration of DMSO was 0.1%.
Cell membrane currents were recorded using a HEKA EPC-10 USB patch-clamp amplifier (HEKA Elektronik, Germany).
1) A coverslip with a large number of uniformly growing individual CHO hERG cells on its surface was taken. Place in a continuous recording cell on an inverted microscope, perfused with extracellular fluid (approximately 1 ml per minute) and recorded continuously, waiting for the current to stabilize. […]
3) The extracellular solution containing the drug to be tested was then perfused and recorded until the inhibitory effect of the drug on the hERG current reached a steady state, at which point the peak tail current was the post-drug current value. […]

[3] = target: T2, CYP2B6 (Homo sapiens, UniProt P20813); experiment: Inhibition of cytochrome P450, 2B6; format: in vitro ADME; settings: CYP2B6 enzyme, pH 7.4, compound concentration 10 μM, read-out: CYP inhibition/% 2B6
T2 sequence (P20813 1-491): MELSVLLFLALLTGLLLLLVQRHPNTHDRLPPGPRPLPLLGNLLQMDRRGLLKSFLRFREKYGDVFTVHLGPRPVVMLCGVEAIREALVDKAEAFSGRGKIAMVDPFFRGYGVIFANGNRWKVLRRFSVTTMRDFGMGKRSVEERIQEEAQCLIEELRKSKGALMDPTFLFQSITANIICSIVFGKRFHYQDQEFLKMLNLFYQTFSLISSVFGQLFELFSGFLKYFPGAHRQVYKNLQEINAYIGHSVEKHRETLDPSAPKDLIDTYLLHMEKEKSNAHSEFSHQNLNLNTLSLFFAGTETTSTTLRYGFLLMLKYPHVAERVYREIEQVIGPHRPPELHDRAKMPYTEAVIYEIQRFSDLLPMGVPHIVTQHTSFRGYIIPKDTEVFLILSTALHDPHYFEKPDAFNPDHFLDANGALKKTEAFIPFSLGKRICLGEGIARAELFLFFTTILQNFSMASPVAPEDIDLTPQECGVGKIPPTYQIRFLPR
Method: Enzymatic experiments were performed to quantify the inhibition of CYP450 enzyme activity of each isoform of CYP450 by small molecule inhibitors through fluorescence generated by the oxidation of the substrate by cytochrome P450. […] The Solution B composition used for the experiment was: 40 U/mL G6PDH (Sigma-aldrich, Cat #G6378). The substrate mix was 0.05× Solution A, 0.01× Solution B, 50 mM Potassium Phosphate, 0.01 mM BOMCC/0.01 mM EOMCC/0.001 mM DBOMF. […] The data were analyzed and processed using GraphPad Prism 6 software to obtain IC50 values.

C=CCn1c(=O)c2cnc(Nc3ccc(N4CCN(C)CC4)cc3)nc2n1-c1cccc(C(C)(C)O)n1 [AZD-1775, reference compound]
fraction unbound at 5 h, 1 µM [1]: 0.36

CN1CCN(c2ccc(Nc3ncc4cnn(-c5cccc(N=S(C)(C)=O)n5)c4n3)cc2)CC1 [Compound 1]
inhibition at 5 µM ([2]; 5 μM): 5.07%
inhibition at 20 µM ([2]; 20 μM): 15.1%
inhibition at 30 min, 10 µM [3]: 4.38%
fraction unbound at 5 h, 1 µM [1]: 0.144
